Results from PubChem BioAssay AID179 (DTP/NCI, 2004).
Values joined by “and” are separate entries in the source; they are usually repeats but may differ in a detail not shown here. Equal entries are not always repeated. Active and inactive are the calls of the source.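 Rule for the calls: active = compounds giving half or more protection of infected cells from virus-caused growth loss, again on retest; inactive = the rest.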

System: CEM cells HIV-1 protection, formazan growth assay
Test: NCI AIDS Antiviral Assay
Conditions: for IC50: measured here: growth of uninfected CEM cells
Method in brief: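 Protection of CEM cells against HIV-1 measured as cell growth via soluble formazan read-out, with five concentrations tested on both infected and uninfected cells; failure to protect may reflect toxicity.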

Compound | EC50 | IC50 | outcome
CCOC(=O)C1(Cc2ccc3c(c2)CCC3)Cc2cc3c(cc2C1)CCC3 | > 200 µM | 15.5 µM | –
NC(=O)COc1c(Br)cc(Br)cc1Br | > 34.7 µM | > 34.7 µM | –
COC(=N)/C(C#N)=N/C1OCC(O)C(O)C1O (configuration not stated) | – | – | inactive
N#Cc1c[nH]n2ccnc12 | > 200 µM | > 200 µM | –
C=CC1CC[N-]CC1.[Cl][Cu][Cl] | – | – | inactive
COC(=O)/C(C#N)=C/c1ccco1 | > 200 µM | > 200 µM | –
CCOC(=O)/C=C1/Oc2ccccc2C1(C)O (configuration not stated) | > 42.7 µM | > 42.7 µM | –
Cc1ccc(CC(Cc2ccccc2C)C(=O)O)c(C(=O)O)c1 (configuration not stated) | > 200 µM | > 200 µM | –
COc1ccc(/C(=N/O)C(c2ccc(OC)cc2)C2C(=O)Oc3ccccc32)cc1 (configuration not stated) | > 17.8 µM | > 17.8 µM | –
Nc1nc2n(nc[n+]2CCP(=O)(O)O)c(=O)[nH]1 | – | – | inactive
COc1ccc(SCc2ccc(C(=O)O)cc2)cc1 | > 26.3 µM | > 26.3 µM | –
CC/C(CC(=O)CCC(=O)Nc1ccccc1[N+](=O)[O-])=N/NC(=O)C[n+]1ccccc1 | > 25.7 µM | > 25.7 µM | –
Nc1ccc(S(=O)(=O)O)cc1[N+](=O)[O-] | > 1150 µM | > 1150 µM | –
Oc1ccccc1/C=N/NC(=S)Nc1cccc2cc3ccccc3nc12 | > 200 µM | 0.575 µM | –
CCCCCCCCCCCC[N+](CCCCCCCCCCCC)=C1SCCS1 | – | – | inactive
O=[N+]([O-])c1ccccc1S(=O)(=O)c1ccc(Cl)cc1 | 12.3 µM and 20.9 µM | 50.1 µM and 81.3 µM | –
CCOC(=O)NC(=O)c1cn(CCSCCOC(=O)NCCCCCCNC(=O)OCCSCCn2cc(C(=O)NC(=O)OCC)c(=O)[nH]c2=O)c(=O)[nH]c1=O | – | – | inactive
CCNCCCCNCCCCNCCCCNCCCCNCC | > 2190 µM | 12.3 µM | –
CC1(N)COP(=O)(NCc2ccccc2)OC1 (configuration not stated) | > 676 µM | 589 µM | –
COc1ccc(-c2c(-c3ccccc3)c(C)nc3[nH]c(=S)[nH]c(=S)c23)cc1OC | > 200 µM | 43.7 µM | –
Cc1c2ccccc2nc(CN2CCOCC2)[n+]1[O-] | > 200 µM | > 200 µM | –
COC(=O)C1=COC(C)C2CN3CCc4c([nH]c5cc(OC)ccc45)C3CC12 (configuration not stated) | > 46.8 µM | > 46.8 µM | –

Compound | EC50 | IC50 | outcome
O=C1N[C@@H]([C@H](CCCCCO)OC(=O)c2ccccc2)CO1 | > 200 µM | > 200 µM | –
N=c1c2sc3nc4ccccc4n3c2ncn1Cc1ccccc1 | > 100 µM | > 100 µM | –
O=S(=O)(F)c1ccc(Cl)cc1C[P+](c1ccccc1)(c1ccccc1)c1ccccc1 | > 200 µM | 87.1 µM | –
O=[N+]([O-])c1ccccc1C1N2CCCCC2[C@@H]2c3[nH]c4ccccc4c3CCN12 (some centres not stated) | > 18.6 µM | > 18.6 µM | –
COP(=O)(OC)C(Cc1c[nH]c2ccccc12)NC(=O)OCc1ccccc1 (configuration not stated) | > 200 µM | > 200 µM | –
CCCCCCSC[C@H](OC(C)=O)[C@@H](OC(C)=O)[C@@H](OC(C)=O)[C@@H](COC(C)=O)OC(C)=O | > 200 µM | 53.7 µM | –
CC1=C(\C=C/C(C)=C/C=C/C(C)=C/C=N/N=C/C=C(C)\C=C\C=C(C)/C=C/C2=C(C)CCCC2(C)C)C(C)(C)CCC1 | > 200 µM | 45.7 µM | –
C=CCCCC(C#N)(c1ccccc1)N(C)C (configuration not stated) | – | – | inactive
COc1cccc(Nc2nc(N)nc(N)c2N=O)c1 | > 200 µM | 11.2 µM | –
CCOC(=O)C1=NN(c2ccc(Cl)cc2)C2=CC(C)=NN(C)C(=S)N21 | > 200 µM | > 200 µM | –
O=c1c2ccccc2c2cc3ccc4c(=O)c5ccccc5c5cc6ccc1c2c6c3c45 | > 200 µM | > 200 µM | –
CCOC(=O)N/N=C(/N)Cc1ccc(Cl)cc1 | > 200 µM | 120 µM | –
CC(C)[P+](c1ccccc1)(c1ccccc1)c1ccccc1 | > 200 µM | 5.5 µM | –
COc1ccc(C2S/C(=C\c3ccccc3)C(=O)N2NC(=O)Cc2ccccc2)cc1 (configuration not stated) | > 23.4 µM | 19.1 µM | –
COC(=O)C(C(=O)C(=O)Nc1ccc(C)cc1C)c1nc2ccc([N+](=O)[O-])cc2[nH]c1=O (configuration not stated) | > 575 µM | 129 µM | –
CN(C)c1ccc(C=NC23CC4CC(CC(C4)C2)C3)cc1 | > 63.1 µM | > 63.1 µM | –
COc1ccc(-c2[nH]c(=O)n(C3OC(CO)C(O)C(O)C3O)c(=O)c2C#N)cc1 (configuration not stated) | > 200 µM and 186 µM | > 200 µM | –
O=C(OCCc1ccccc1)c1cc2ccc(O)c(O)c2cn1 | > 8.32 µM | > 8.32 µM | –
CCCCC(CC)COS(=O)(=O)O (configuration not stated) | 145 µM | > 200 µM | –
NCCC=C(c1cc(Cl)c(O)c(C(=O)O)c1)c1cc(Cl)c(O)c(C(=O)O)c1 | 151 µM | > 200 µM | –
CC1CN=C(Nc2ccccc2)S1 (configuration not stated) | > 200 µM | > 200 µM | –
COC(=O)c1ccc(C)cc1C1CN=NC12Cc1c(C)cccc1C2=O (configuration not stated) | > 200 µM | > 200 µM | –

Compound | EC50 | IC50 | outcome
Cc1ccc2[nH]c3c(c2c1)CCC/C3=N/N=C(N)N | > 20 µM | 3.02 µM | –
C=C(C(=C)P(=S)(C(C)C)C(C)C)P(=S)(C(C)C)C(C)C | > 74.1 µM | > 74.1 µM | –
Cc1csc([C@H]2CCC3[C@@H]4CC=C5C[C@@H](O)CC[C@]5(C)C4CC[C@@]32C)n1 (some centres not stated) | > 67.6 µM | > 67.6 µM | –
CC(C)CN(CC(C)C)CN1C(=O)/C(=C/c2ccc([N+](=O)[O-])cc2)SC1=S | > 200 µM | 15.8 µM | –
Cc1cc(C)nc(NS(=O)(=O)c2ccc(NC(=O)c3cccnc3Nc3cccc(Cl)c3)cc2)n1 | – | – | inactive
COc1cc2c(cc1O)C1Cc3ccc(OC)c(O)c3C(C2)N1C (configuration not stated) | > 200 µM | 85.1 µM | –
CC(CCC(=O)O)(c1ccc(O)c(CN(c2ccccc2)c2ccccc2)c1)c1ccc(O)c(CN(c2ccccc2)c2ccccc2)c1 | – | – | inactive
O=C(N=S(NC(=O)c1ccccc1)C(Cl)(Cl)Cl)c1ccccc1 (configuration not stated) | > 44.7 µM | 16.6 µM | –
c1ccc(Cn2c(-c3ccc(-c4ccccc4)cc3)cc3ccccc32)cc1 | > 100 µM | > 100 µM | –
COc1ccn(CC(C)=O)c(=O)n1 | > 200 µM | > 200 µM | –
C=C(Br)C[N+]12CN3CN(CN(C3)C1)C2 | > 200 µM | 55 µM | –
CN1C(=O)N(C)C(N2CCCC2)c2c1nc1ccccn1c2=O (configuration not stated) | > 219 µM | 66.1 µM | –
S=C(NCCc1ccccc1)N1CCC(CCCC2CCN(C(=S)NCCc3ccccc3)CC2)CC1 | > 200 µM | > 200 µM | –
O=C1c2cccc(O)c2C(=O)c2cccc(O)c21 | > 4.37 µM | > 4.37 µM | –
O=C1OC2C=CC1C1C(=O)OC(=O)C21 (configuration not stated) | > 200 µM | > 200 µM | –
O=C1CCC[C@]2(C1)Cc1ccccc1N2 | > 468 µM | 288 µM | –
OCC1NC(COC2OC(CO)C(O)C(O)C2O)C(O)C(O)C1O (configuration not stated) | – | – | inactive
CCOP(=O)(OCC)c1cc(NC(=O)c2cc(NC(=O)c3cc(NC(=O)Nc4cc(C(=O)Nc5cc(C(=O)Nc6cc(P(=O)(OCC)OCC)c7cccc(P(=O)(OCC)OCC)c7c6)n(C)c5)n(C)c4)cn3C)cn2C)cc2c(P(=O)(OCC)OCC)cccc12 | > 200 µM | > 200 µM | –
CC(=O)Oc1c(C)cc2c(c1C)C(C)(C)CN2C(=O)C(C)(C)C | > 200 µM | 66.1 µM | –
CC(C)(C)C1CCC(CC(=O)O)(CC(=O)Nc2nccs2)CC1 (configuration not stated) | > 200 µM | 89.1 µM | –
N#C/C(=C1\SCC(=O)N1c1ccccc1)c1nc2ccccc2[nH]1 | > 4.37 µM | > 4.37 µM | –
NCCSC(C[N+](=O)[O-])c1ccccc1Cl (configuration not stated) | > 200 µM | 2.19 µM | –

Compound | EC50 | IC50 | outcome
CCN1C[C@]2(C)CC[C@H](O)C34C1C(C[C@@H]32)[C@@]1(O)CC[C@H]2C[C@@H]4[C@@H]1[C@H]2O | – | – | inactive
Cc1nc(Nc2ccc(Cl)cc2Cl)sc1C(=O)Nc1ccccc1 | > 200 µM | 117 µM | –
Clc1ccc(-c2cc(=[N+]3CC[N+](=c4cc(-c5ccc(Cl)cc5)ss4)CC3)ss2)cc1 | 6.31 µM | 129 µM | –
CCN(CC)CCCCCCNc1cc(C)cc2cccnc12 | > 200 µM | 20.9 µM | –
O=C(O)c1[nH][nH]c(=O)c1N=Nc1ccc(/C=C/c2ccc(N=Nc3c(C(=O)O)[nH][nH]c3=O)cc2S(=O)(=O)O)c(S(=O)(=O)O)c1 | > 200 µM | > 200 µM | –
COC(=O)C(/C(=N\NC(N)=S)C(=O)Nc1ccccc1[N+](=O)[O-])c1cnc2ccccc2n1 (configuration not stated) | > 145 µM | > 145 µM | –
O=c1oc(-c2ccccc2Br)ns1 | > 100 µM | 52.5 µM | –
C/C(=N/NC(=S)N1CCCCC1)c1cccc(/C(C)=N\NC(=S)N2CCCCC2)n1 | > 200 µM | 13.2 µM | –
CCN(CC)CCN=Cc1c(O)c(O)c(C(C)C)c2cc(C)c(-c3c(C)cc4c(C(C)C)c(O)c(O)c(C=NCCN(CC)CC)c4c3O)c(O)c12 | > 200 µM | 1.02 µM | –
OC(Cc1ccc2ccccc2n1)(C(F)(F)Cl)C(F)(F)Cl | > 200 µM | 81.3 µM | –
N#Cc1c(-c2ccc([N+](=O)[O-])cc2)c(=O)oc2cc(O)ccc12 | > 100 µM | 74.1 µM | –
Cc1ccc(NC(=O)c2cc(S(=O)(=O)Nc3nc4ncccc4[nH]3)c(SSc3cc(Cl)c(C(=O)Nc4ccc(C)cc4)cc3S(=O)(=O)Nc3nc4ncccc4[nH]3)cc2Cl)cc1 | > 200 µM | > 200 µM | –
Cc1nc(SCC(=O)Nc2ccccc2)c2sc(=S)n(-c3ccccc3)c2n1 | > 501 µM | > 501 µM | –
COC(=O)C(C)(C)C(OP1(=S)OCCN1C)=C(C)C (configuration not stated) | > 117 µM | > 117 µM | –
O=C1/C(=C/c2ccccc2)NC(=S)N1CN1CCOCC1 | > 200 µM | 72.4 µM | –
Cc1cc(N(CCC#N)CCC#N)ccc1/C=C(\NC(=O)/C=C/c1ccccc1)C(N)=O | – | – | inactive
CSCCCNC(=O)c1csc(-c2csc(CCN)n2)n1 | > 661 µM | 85.1 µM | –
O=C(OCCNC(=O)N1CC1)OCCNC(=O)N1CC1 | > 200 µM | > 200 µM | –
CCC1c2cc3n(c(=O)c2COC1O)Cc1c-3nc2ccccc2c1Cl (configuration not stated) | > 10 µM | 6.31 µM | –
C=C(c1ccccc1)[C@@]1(O)CC[C@@H]1N(CC#N)Cc1ccccc1 | – | – | inactive
Oc1ccccc1CNCc1nc2ccccc2[nH]1 | > 200 µM | 74.1 µM | –
